Data reported in patent US7622466B2, “Azaindole-2-carboxamide derivatives” (Hoffman-La Roche Inc., priority 2005, dated 2009).

Target: T1, histamine 3 receptor (H3R) (Homo sapiens, UniProt Q9Y5N1)
T1 construct: expressed in transfected cells; host or cells: CHO cells (HR3-CHO cell line), membranes
Assay: Competition binding assay with 3H-(R)α-methylhistamine on membranes of the human HR3-CHO cell line
Conditions: membrane of human HR3-CHO cell line; 3H(R)α-Methylhistamine 1 nM; Ki calculated from IC50 by Cheng-Prusoff equation
Description: Binding Assay with ^3H-(R)α-methylhistamine
Saturation binding experiments were performed using HR3-CHO membranes prepared as described in Takahashi, K, Tokita, S., Kotani, H. (2003) J. Pharmacol. Exp. Therapeutics 307, 213-218.
An appropriate amount of membrane (60 to 80 μg protein/well) was incubated with increasing concentrations of ^3H(R)α-Methylhistamine di-hydrochloride (0.10 to 10 nM). Non specific binding was determined using a 200 fold excess of cold (R)α-Methylhistamine dihydrobromide (500 nM final concentration). The incubation was carried out at room temperature (in deep-well plates shaking for three hours). The final volume in each well was 250 μl. The incubation was followed by rapid filtration on GF/B filters (pre-soaked with 100 μl of 0.5% PEI in Tris 50 mM shaking at 200 rpm for two hours). The filtration was made using a cell-harvester and the filter plates were then washed five times with ice cold washing buffer containing 0.5 M NaCl. After harvesting, the plates were dried at 55° C. for 60 min, then we added scintillation fluid (Microscint 40, 40 microl in each well) and the amount of radioactivity on the filter was determined in Packard top-counter after shaking the plates for two hours at 200 rpm at room temperature.
Binding Buffer: 50 mM Tris-HCl pH 7.4 and 5 mM MgCl2×6H2O pH 7.4. Washing Buffer: 50 mM Tris-HCl pH 7.4 and 5 mM MgCl2×6H2O and 0.5 M NaCl pH 7.4.
Indirect measurement of affinity of H3R inverse agonists: twelve increasing concentrations (ranging from 10 μM to 0.3 nM) of the selected compounds were always tested in competition binding experiments using membrane of the human HR3-CHO cell line. An appropriate amount of protein, e.g. approximately 500 cpm binding of RAMH at Kd, were incubated for 1 hour at room temperature in 250 μl final volume in 96-well plates in presence of ^3H(R)α-Methylhistamine (1 nM final concentration=Kd). Non-specific binding was determined using a 200 fold excess of cold (R)α-Methylhistamine dihydrobromide.
All compounds were tested at a single concentration in duplicates.

T1 sequence (Q9Y5N1 whole entry): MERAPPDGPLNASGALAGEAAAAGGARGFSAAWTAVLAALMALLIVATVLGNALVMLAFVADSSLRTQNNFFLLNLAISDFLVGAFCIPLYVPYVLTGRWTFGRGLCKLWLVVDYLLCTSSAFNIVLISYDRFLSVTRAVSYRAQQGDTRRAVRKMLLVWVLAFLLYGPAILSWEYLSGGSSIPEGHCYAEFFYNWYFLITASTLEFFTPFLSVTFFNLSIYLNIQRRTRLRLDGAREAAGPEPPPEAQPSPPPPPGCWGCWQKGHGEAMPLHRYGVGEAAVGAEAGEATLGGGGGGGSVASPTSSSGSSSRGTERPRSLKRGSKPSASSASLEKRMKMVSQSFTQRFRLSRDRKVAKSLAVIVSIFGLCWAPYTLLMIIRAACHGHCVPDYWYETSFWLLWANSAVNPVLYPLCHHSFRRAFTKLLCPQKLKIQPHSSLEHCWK

Ki [nM] | Compound
28.9 | CC(C)N1CCC(Oc2cnc3[nH]c(C(=O)N4CCC(F)(F)CC4)cc3c2)CC1 [Example 13, (4,4-Difluoro-piperidin-1-yl)-[5-(1-isopropyl-piperidin-4-yloxy)-1H-pyrrolo[2,3-b]pyridin-2-yl]-methanone]
9.4 | CC(C)N1CCC(Oc2cnc3c(c2)cc(C(=O)N2CCC(F)(F)CC2)n3C(C)C)CC1 [Example 22, (4,4-Difluoro-piperidin-1-yl)-[1-isopropyl-5-(1-isopropyl-piperidin-4-yloxy)-1H-pyrrolo[2,3-b]pyridin-2-yl]-methanone]
25.5 | O=C(c1cc2cc(OCCCN3CCCC3)cnc2[nH]1)N1CCOCC1 [Example 5, Morpholin-4-yl-[5-(3-pyrrolidin-1-yl-propoxy)-1H-pyrrolo[2,3-b]pyridin-2-yl]-methanone]
